In brackets after ≈: the same amount, converted by molar mass. Read-outs that look alike come from different tables or passages of the source.
Assays:
[1] = Solubility of crystalline modifications of Febuxostat in phosphate buffer; assay type: physicochemical
[2] = In-vitro dissolution of tablets, Ph. Eur. 2.9.3 / USP <711> Method 2 (Paddle Apparatus); assay type: physicochemical; conditions: Figures 2 and 3; same excipient mixture as example 1
Protocol: The in-vitro dissolution of tablets according to examples 2 to 5 were analyzed according to Ph. […]

SMILES: Cc1nc(-c2ccc(OCC(C)C)c(C#N)c2)sc1C(=O)O [Form "G", 2-[3-cyano-4-(2-methylpropoxy)phenyl]-4-methylthiazole-5-carboxylic acid]
- Solubility ([1]; n=3): 0,13 mg/ml
- influence on dissolution profile of interchange of crystalline form F10 by another crystalline form [2]: does not influence the dissolution profile significantly

SMILES: Cc1nc(-c2ccc(OCC(C)C)c(C#N)c2)sc1C(=O)O [Form "F10", 2-[3-cyano-4-(2-methylpropoxy)phenyl]-4-methylthiazole-5-carboxylic acid]
- Solubility ([1]; aqueous buffer, n=3, read-out: Solubility): 260 µg/mL (≈ 822 µM)

SMILES: Cc1nc(-c2ccc(OCC(C)C)c(C#N)c2)sc1C(=O)O [Form "A", 2-[3-cyano-4-(2-methylpropoxy)phenyl]-4-methylthiazole-5-carboxylic acid]
- Solubility ([1]; n=3): 0,10 mg/ml
- influence on dissolution profile of interchange of crystalline form F10 by another crystalline form [2]: does not influence the dissolution profile significantly

SMILES: Cc1nc(-c2ccc(OCC(C)C)c(C#N)c2)sc1C(=O)O [Form "II", 2-[3-cyano-4-(2-methylpropoxy)phenyl]-4-methylthiazole-5-carboxylic acid]
- Solubility ([1]; n=3): 0,36 mg/ml
- influence on dissolution profile of interchange of crystalline form F10 by another crystalline form [2]: does not influence the dissolution profile significantly

From patent EP3002006A1, “Pharmaceutical composition capable for the incorporation Febuxostat in the crystalline modifications F10, II, G and A” (Bluepharma - Industria Farmacêutica, S.A., priority 2014, dated 2016)
